Assays:
Format in all cases: in vivo
Set-up in all cases: fold induction: dose or concentration left out as unconfirmed
Conditions in all cases: for fold induction: rates of Table 1 (S7 500)
[1] = test system: Contig2330_x_at, 12-oxophytodienoic acid reductase; experiment: GEP, barley DNA chip, probe set 1.19
Experimental: (§1) Barley plants (cv. Baronesse) were grown in compost-filled pots (diameter: 10 cm) for 10 days in a controlled-environment cabinet under defined light, humidity and temperature conditions (white light, 70% atmospheric humidity, 24° C.). At the time of spray application, the seedlings were approximately 15 cm in size. The test substances selected in this example were molecules which differ markedly in their structure and which have a well documented pronounced safener effect, and other molecules which are known from the literature to have an effect on plant stress and pathogen tolerance (Table 1). The substances were prepared as stock solutions in DMSO (dimethyl sulfoxide) at c=10 mg/ml). This was used for preparing dilutions in water supplemented with 0.2% Agrotin (comprises polyvinyl alcohol, silicones, polysaccharides and pH regulators, manufacturer: Bayer CropScience AG, Monheim, Germany), as wetter, to give the application rates shown in the table. The amount of liquid for the spray application was 800 μl per pot, corresponding to 800 l/ha. For each 800 μl of spray mixture, 16 μl of EC premix: diacetone alcohol=1:6 were additionally added as formulation auxiliaries. The substances listed in Table 1 were applied to the leaves by means of a pneumatic spray pistol. Each substance was sprayed as 2 dosages, and all experiments were carried out as replicates (2 pots per substance). Sprayings with blank formulation without active ingredient were carried out as controls. After 6 hours, the leaves were harvested, frozen in liquid nitrogen and stored at −80° C. until further use. The labeled RNA probes for the DNA chip hybridization were prepared as described in the protocols (Expression Analysis, Technical Manual) from Affymetrix (Affymetrix Inc., 3380 Central Expressway, Santa Clara, Calif., USA). First, total RNA was isolated from in each case 500 mg of the harvested leaves. In each case 10 μg of total RNA was used for the first-strand and second-strand cDNA synthesis. The cDNA was amplified with T7 polymerase and simultaneously labeled with biotin-UTP. In each case, 20 μg of this biotinylated cDNA was employed for the hybridization of the barley genome array (Gene Chip Barleyl, order No.: 511012) from Affymetrix. This DNA microarray comprises DNA sequences of 22 840 genes which are composed of a total of 400 000 EST sequences. Thereafter, the DNA microarrays were washed in the Affymetrix Fluidics Station, stained with streptavidin/phycoerythrin (Molecular Probes, P/N S-866) and scanned with the matching Agilent Laser Scanner (Agilent Gene Array Scanner). The fluorescent data obtained were analyzed with the software Microarray Suite 5 from Affymetrix. After the quality had been checked, all DNA chip analyses were stored in a database. To determine the relative expression values for genes (induction factors, repression factors), test and control chips were compared with each other, and the scoring function set by the Affymetrix software was used as the basis. The 2 biological replications of one experiment were compared in each case with 2 control chips (blank formulation), and the 4 expression values obtained for each gene were used for calculating the median. These medians are shown in the results tables as induction factors. Similarity comparisons of expression profiles from different experiments and cluster analyses were carried out using the software GeneMaths 1.5 from Applied Maths (Applied Maths, Keistraat 120, 9830 Sint-Martens-Latem, Belgium).
(§2) Gene groups from specific metabolic pathways and signal transduction chains were put together by key word search in the annotations, of the genes, which were also provided by Affymetrix, and by Blast analyses (homology comparisons) of the DNA target sequences, i.e. of the positive sequence (identified on the basis of a modified expression profile) identified on the DNA chip, using gene sequences from other organisms, preferably plant organisms, with characterized functions. […]

[2] = test system: Contig1736_at, Lipoxygenase 1 (EC 1.13.11.12); experiment: GEP, barley DNA chip, probe set 1.10
Experimental: as §1, §2

[3] = test system: Contig15_a_at, GDSL-motif lipase/hydrolase-like protein; experiment: GEP, barley DNA chip, probe set 1.9
Experimental: as §1, §2

[4] = test system: Contig5023_at, Class III chitinase; experiment: GEP, barley DNA chip, probe set 5.3
Experimental: as §1, §2

[5] = test system: Contig2337_at, 12-oxophytodienoate reductase (OPR1); experiment: GEP, barley DNA chip, probe set 1.20
Experimental: as §1, §2

[6] = test system: Contig5607_s_at, Pathogen-related protein (PirT06168); experiment: GEP, barley DNA chip, probe set 4.3
Experimental: as §1, §2

[7] = test system: Contig 4986_at, Allene oxide cyclase; experiment: GEP, barley DNA chip, probe set 1.5
Experimental: as §1, §2

[8] = test system: Contig2990_at, Chitinase (EC 3.2.1.14); experiment: GEP, barley DNA chip, probe set 5.1
Experimental: as §1, §2

[9] = test system: Contig3097_at, Allene oxide synthase; experiment: GEP, barley DNA chip, probe set 1.3
Experimental: as §1, §2

[10] = test system: Contig34_s_at, Putative proteinase inhibitor; experiment: GEP, barley DNA chip, probe set 2.2
Experimental: as §1, §2

[11] = test system: Contig8905_at, Xytanase inhibitor protein; experiment: GEP, barley DNA chip, probe set 3.1
Experimental: as §1, §2

[12] = test system: HD07M22r_s_at, Proteinase-Inhibitor (pir S71555, barley); experiment: GEP, barley DNA chip, probe set 2.4
Experimental: as §1, §2

[13] = test system: Contig10030_at, Putative lipase homolog; experiment: GEP, barley DNA chip, probe set 1.13
Experimental: as §1, §2

[14] = barley leaves 6 h after spray application, rates of Table 1 (150 g a.i./ha, S7 500), median induction factor vs control
[15] = Hordeum vulgare, topical, barley leaves 6 h after spray application, median induction factor vs control, read-out: Expression value, 1.19 Contig2330_x_at
[16] = Hordeum vulgare, barley leaves 6 h after spray application, median induction factor vs control, read-out: Expression value, 1.10 Contig1736_at
[17] = Hordeum vulgare, topical, barley leaves 6 h after spray application, median induction factor vs control, read-out: Expression value, 1.9 Contig15_a_at
[18] = Hordeum vulgare, topical, barley leaves 6 h after spray application, median induction factor vs control, read-out: Expression value, 5.3 Contig5023_at
[19] = Hordeum vulgare, topical, barley leaves 6 h after spray application, median induction factor vs control, read-out: Expression value, 1.20 Contig2337_at
[20] = Hordeum vulgare, topical, barley leaves 6 h after spray application, median induction factor vs control, read-out: Expression value, 4.3 Contig5607_s_at
[21] = Hordeum vulgare, topical, barley leaves 6 h after spray application, median induction factor vs control, read-out: Expression value, 1.5 Contig 4986_at
[22] = Hordeum vulgare, topical, barley leaves 6 h after spray application, median induction factor vs control, read-out: Expression value, 5.1 Contig2990_at
[23] = Hordeum vulgare, topical, barley leaves 6 h after spray application, median induction factor vs control, read-out: Expression value, 1.3 Contig3097_at
[24] = Hordeum vulgare, topical, barley leaves 6 h after spray application, median induction factor vs control, read-out: Expression value, 2.2 Contig34_s_at
[25] = Hordeum vulgare, topical, barley leaves 6 h after spray application, median induction factor vs control, read-out: Expression value, 3.1 Contig8905_at
[26] = Hordeum vulgare, topical, barley leaves 6 h after spray application, median induction factor vs control, read-out: Expression value, 2.4 HD07M22r_s_at
[27] = Hordeum vulgare, topical, barley leaves 6 h after spray application, median induction factor vs control, read-out: Expression value, 1.13 Contig10030_at

## O=C(NO)c1ccccc1O [S7, Salicyl hydroxamate]
[1]; [14]
  Expression value, 1.19 Contig2330_x_at: 1.00 x times
[2]; [14]
  Expression value, 1.10 Contig1736_at: 1.00 x times
[3]; [14]
  Expression value, 1.9 Contig15_a_at: 1.00 x times
[4]; [14]
  Expression value, 5.3 Contig5023_at: 1.00 x times
[5]; [14]
  Expression value, 1.20 Contig2337_at: 1.00 x times
[6]; [14]
  Expression value, 4.3 Contig5607_s_at: 1.00 x times
[7]; [14]
  Expression value, 1.5 Contig 4986_at: 1.00 x times
[8]; [14]
  Expression value, 5.1 Contig2990_at: 1.00 x times
[9]; [14]
  Expression value, 1.3 Contig3097_at: 1.00 x times
[10]; [14]
  Expression value, 2.2 Contig34_s_at: 4.50 x times
[11]; [14]
  Expression value, 3.1 Contig8905_at: 1.00 x times
[12]; [14]
  Expression value, 2.4 HD07M22r_s_at: 1.00 x times
[13]; [14]
  Expression value, 1.13 Contig10030_at: 1.00 x times

## CCOC(=O)C(Oc1ccc(Cl)c2cccnc12)C(=O)OCC [S5]
[1]; [15]
  fold induction: 1
[2]; [16]
  fold induction: 1
[3]; [17]
  fold induction: 0.46
[4]; [18]
  fold induction: 2.73
[5]; [19]
  fold induction: 1
[6]; [20]
  fold induction: 8.75
[7]; [21]
  fold induction: 1
[8]; [22]
  fold induction: 1
[9]; [23]
  fold induction: 1
[10]; [24]
  fold induction: 1
[11]; [25]
  fold induction: 3.01
[12]; [26]
  fold induction: 7.84
[13]; [27]
  fold induction: 1

## O=C(O)c1cc(Cl)nc(Cl)c1 [S9]
[1]; Hordeum vulgare, topical, 6 h, read-out: Expression value, 1.19 Contig2330_x_at
  fold induction at 150 g/ha: 1
[2]; Hordeum vulgare, 6 h, read-out: Expression value, 1.10 Contig1736_at
  fold induction at 150 g/ha: 1
[3]; Hordeum vulgare, topical, 6 h, read-out: Expression value, 1.9 Contig15_a_at
  fold induction at 150 g/ha: 1
[4]; Hordeum vulgare, topical, 6 h, read-out: Expression value, 5.3 Contig5023_at
  fold induction at 150 g/ha: 4.56
[5]; Hordeum vulgare, topical, 6 h, read-out: Expression value, 1.20 Contig2337_at
  fold induction at 150 g/ha: 1
[6]; Hordeum vulgare, topical, 6 h, read-out: Expression value, 4.3 Contig5607_s_at
  fold induction at 150 g/ha: 1
[7]; Hordeum vulgare, topical, 6 h, read-out: Expression value, 1.5 Contig 4986_at
  fold induction at 150 g/ha: 1
[8]; Hordeum vulgare, topical, 6 h, read-out: Expression value, 5.1 Contig2990_at
  fold induction at 150 g/ha: 2.39
[9]; Hordeum vulgare, topical, 6 h, read-out: Expression value, 1.3 Contig3097_at
  fold induction at 150 g/ha: 1
[10]; Hordeum vulgare, topical, 6 h, read-out: Expression value, 2.2 Contig34_s_at
  fold induction at 150 g/ha: 1
[11]; Hordeum vulgare, topical, 6 h, read-out: Expression value, 3.1 Contig8905_at
  fold induction at 150 g/ha: 2.53
[12]; Hordeum vulgare, topical, 6 h, read-out: Expression value, 2.4 HD07M22r_s_at
  fold induction at 150 g/ha: 1
[13]; Hordeum vulgare, topical, 6 h, read-out: Expression value, 1.13 Contig10030_at
  fold induction at 150 g/ha: 1

## CCCCCC(C)OC(=O)COc1ccc(Cl)c2cccnc12 (centres unmarked) [S4, Cloquintocet-mexyl]
[1]; [15]
  fold induction: 2.83
[2]; [16]
  fold induction: 1
[3]; [17]
  fold induction: 1
[4]; [18]
  fold induction: 1
[5]; [19]
  fold induction: 1
[6]; [20]
  fold induction: 18.4
[7]; [21]
  fold induction: 1
[8]; [22]
  fold induction: 1
[9]; [23]
  fold induction: 1
[10]; [24]
  fold induction: 1
[11]; [25]
  fold induction: 2.73
[12]; [26]
  fold induction: 1
[13]; [27]
  fold induction: 1

## O=C(O)C1=NN(c2ccc(Cl)cc2Cl)C(c2ccc(F)cc2)C1 (centres unmarked) [S2]
[1]; [15]
  fold induction: 2.39
[2]; [16]
  fold induction: 1
[3]; [17]
  fold induction: 1
[4]; [18]
  fold induction: 3.18
[5]; [19]
  fold induction: 1
[6]; [20]
  fold induction: 15.6
[7]; [21]
  fold induction: 1
[8]; [22]
  fold induction: 1
[9]; [23]
  fold induction: 1
[10]; [24]
  fold induction: 1
[11]; [25]
  fold induction: 2.53
[12]; [26]
  fold induction: 1
[13]; [27]
  fold induction: 1

## CSC(=O)c1cccc2nnsc12 [S8, Acibenzolar-S-methyl]
[1]; [15]
  fold induction: 1
[2]; [16]
  fold induction: 1
[3]; [17]
  fold induction: 1
[4]; [18]
  fold induction: 1
[5]; [19]
  fold induction: 1
[6]; [20]
  fold induction: 1
[7]; [21]
  fold induction: 1
[8]; [22]
  fold induction: 1
[9]; [23]
  fold induction: 2.11
[10]; [24]
  fold induction: 3.68
[11]; [25]
  fold induction: 1
[12]; [26]
  fold induction: 1
[13]; [27]
  fold induction: 1

## COC(=O)C1=NN(c2ccc(Cl)cc2Cl)C(C)(C(=O)OC)C1 (centres unmarked) [S1, Mefenpyr-dimethyl]
[1]; [15]
  fold induction: 4.03
[2]; [16]
  fold induction: 1
[3]; [17]
  fold induction: 0.35
[4]; [18]
  fold induction: 9.51
[5]; [19]
  fold induction: 4.89
[6]; [20]
  fold induction: 18.6
[7]; [21]
  fold induction: 1
[8]; [22]
  fold induction: 4.17
[9]; [23]
  fold induction: 1
[10]; [24]
  fold induction: 1
[11]; [25]
  fold induction: 3.1
[12]; [26]
  fold induction: 6.32
[13]; [27]
  fold induction: 1

## O=C(O)c1cc(Cl)cc(Cl)c1O [S10]
[1]; [15]
  fold induction: 1
[2]; [16]
  fold induction: 1
[3]; [17]
  fold induction: 1
[4]; [18]
  fold induction: 1
[5]; [19]
  fold induction: 1
[6]; [20]
  fold induction: 1
[7]; [21]
  fold induction: 1
[8]; [22]
  fold induction: 1
[9]; [23]
  fold induction: 1
[10]; [24]
  fold induction: 2.08
[11]; [25]
  fold induction: 1
[12]; [26]
  fold induction: 1
[13]; [27]
  fold induction: 1

Source: patent US20070265164A1, “Active Substances for Increasing Pathogenic Defense in Plants and Methods for the Detection Thereof” (Bayer Cropscience GmbH, priority 2004, published 2007)
